Test results reported in PMC7426420, “Cupid, a cell permeable peptide derived from amoeba, capable of delivering GFP into a diverse range of species” (Scientific Reports, 2020).

Tested on: Dictyostelium discoideum AX2 strain cells
Test: Cell penetration into Dictyostelium amoeba cells, fluorescence microscopy of fixed cells
Format: cell-based
Conditions: 10 µM, 60 min in buffer, washed 3 times, fixed with Fluorsave, green fluorescent filter; GFP proteins denatured, non-fluorescent when added
Procedure: Dictyostelium discoideum AX2 strain cells were grown on Klebsiella aerogenes plates. For experimentation, cells at the growth zone were collected and washed 5 times with 10 mM potassium phosphate buffer, pH 7.2 and seeded in slide chambers at a density of 10^5 cells/mL. Cells were incubated with FITC-labelled Cupid, Cupid-GFP or H-GFP at the doses indicated for 60 min, washed 3 times in buffer and fixed in situ using Fluorsave (Calbiochem, UK) under a coverslip. Cell microscopy was performed on an upright fluorescence microscope (Olympus BX61) with the green fluorescent filter set, coupled with a digital camera.

Substance | cells become fluorescent (cell-penetrating capability)
RRVQIWFQNKRAKVKR [F-Cupid] | caused the cells to become fluorescent
fluorescein-labelled BSA: fluorescein-labelled BSA control (data not shown) | did not
